Source: patent US11084826B2, “RSV antiviral pyrazolo- and triazolo-pyrimidine compounds” (Janssen Sciences Ireland Unlimited Company, priority 2015, dated 2021)

Experiments:
rgRSV224 virus = test: Antiviral activity: inhibition of rgRSV224 (GFP-expressing RSV) replication in HeLa cells, GFP expression read-out; assay type: cell-based, respiratory syncytial virus (RSV); conditions: human respiratory syncytial virus, HeLa, read-out: RSV HELA pEC50, rgRSV224 virus (MOI=1) in HeLa cells, GFP read-out (converted)
Summary of the method: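 EC50 is the 50% inhibitory concentration for GFP expression, read by laser microscopy three days after rgRSV224 infection (MOI=1) of HeLa cells (3,000/well). Compounds were tested as 9 serial 4-fold dilutions at 0.05% DMSO, and cells were incubated at 37° C under 5% CO2.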

[1] = Cytotoxicity in HeLa cells, ATP content measured with the ATPlite kit; assay type: cell-based; conditions: human, TOX HELA pCC50

Structure (SMILES) | EC50 (rgRSV224 virus) [nM] | melting point [°C] | CC50 at 3 days [1] [nM]
CCc1cc(C(=O)N2CCCCCC2C)nc2cc(-c3ccc(NC(=O)CC4CCCCN(C)C4=O)cc3)nn12 (stereo not drawn) [Compound E9] | 170 | 255 to 260 | > 25100
CCc1cc(C(=O)N2CCCCC[C@H]2C)nc2cc(-c3ccc(NC(=O)C4CC4)cc3F)nn12 [Compound E10] | 91.2 | 225 to 230 | > 25100
CCc1cc(C(=O)N2CCCCCC2C)nc2cc(-c3ccc(NC(=O)C4CC4)cc3F)nn12 (stereo not drawn) [Compound E11] | 631 | 145 | > 25100
CCc1cc(C(=O)N2CCCCCC2C)nc2c(Cl)c(-c3ccc(NC(=O)C4CC4)cc3F)nn12 (stereo not drawn) [Compound E13] | 1480 | 245 to 250 | > 25100
CCc1cc(C(=O)N2CCCCCC2C)nc2cc(-c3ccc(NC(=O)C4CC4)cc3)nn12 (stereo not drawn) [Compound E14] | 309 | 265 to 270 | > 50100
CCc1cc(C(=O)N2CCCCC2C)nc2cc(-c3ccc(NC(=O)C4CC4)cc3)nn12 (stereo not drawn) [Compound E15] | 832 | 260 to 265 | > 96200
CCc1cc(C(=O)N2CCCCCC2C)nc2cc(-c3ccc(NC(=O)C4CC4)cc3C)nn12 (stereo not drawn) [Compound E16] | 1320 | 223 | > 10000
CC1CCCCCN1C(=O)c1cc(N2CCCC2)n2nc(-c3ccc(NC(=O)C4CC4)cc3)cc2n1 (stereo not drawn) [Compound E17] | 513 | 282 to 284 | > 50100
CC1CCCCCN1C(=O)c1cc(N2CCCCC2)n2nc(-c3ccc(NC(=O)C4CC4)cc3)cc2n1 (stereo not drawn) [Compound E18] | 1260 | 299 to 300 | > 25100
CC1CCCCCN1C(=O)c1cc(N(C)C2CCCCC2)n2nc(-c3ccc(NC(=O)C4CC4)cc3)cc2n1 (stereo not drawn) [Compound E19] | 537 | 261 to 262 | > 100000
CCCC(=O)Nc1ccc(-c2cc3nc(C(=O)N4CCCCCC4C)cc(CC)n3n2)cc1 (stereo not drawn) [Compound E20] | 692 | 268 to 270 | > 25100
C=CCC(=O)Nc1ccc(-c2cc3nc(C(=O)N4CCCCCC4C)cc(CC)n3n2)cc1 (stereo not drawn) [Compound E21] | 603 | 243 to 244 | > 25100
CCc1cc(C(=O)N2CCCCCC2C)nc2cc(-c3ccc(NC(=O)c4nccn4C)cc3)nn12 (stereo not drawn) [Compound E22] | 1700 | 196 to 198 | 21900
CCc1cc(C(=O)N2CCCCCC2C)nc2cc(-c3ccc(NC(=O)Cc4ccncc4)cc3)nn12 (stereo not drawn) [Compound E23] | 646 | 232 to 234 | > 25100
CCc1cc(C(=O)N2CCCCCC2C)nc2cc(-c3ccc(NC(=O)CCC(=O)O)cc3F)nn12 (stereo not drawn) [Compound E24] | 282 | 225 to 230 | > 25100
CCc1cc(C(=O)N2CCCCCC2C)nc2cc(-c3ccc(NC(=O)CCC(N)=O)cc3F)nn12 (stereo not drawn) [Compound E25] | 61.7 | 155 to 160 | > 25100
CCc1cc(C(=O)N2CCCCCC2C)nc2cc(-c3ccc(N4C(=O)CCC4=O)cc3F)nn12 (stereo not drawn) [Compound E26] | 407 | 190 to 195 | > 25100
CCc1cc(C(=O)N2CCCCCC2C)nc2cc(-c3ccc(NC(=O)CCC(=O)NC)cc3F)nn12 (stereo not drawn) [Compound E27] | 117 | 215 to 220 | > 25100
CCc1cc(C(=O)N2CCCCCC2C)nc2cc(-c3ccc(NC(=O)CCC(=O)N(C)C)cc3F)nn12 (stereo not drawn) [Compound E28] | 117 | 180 to 185 | > 25100
CCc1cc(C(=O)N2CCCCCC2C)nc2cc(-c3ccc(NC(=O)CCC(=O)NC)cc3)nn12 (stereo not drawn) [Compound E29] | 457 | 204 to 205 | > 25100
CCc1cc(C(=O)N2CCCCCC2C)nc2cc(-c3csc(NC(=O)C4CC4)n3)nn12 (stereo not drawn) [Compound E30] | 1820 | 277 to 279 | > 25100
CCc1cc(C(=O)N2CCCCC2C)nc2cc(-c3ccc(-c4ccncc4)cc3)nn12 (stereo not drawn) [Compound F1] | 871 | 150 to 151 | 38000
CCc1cc(C(=O)N2CCCCCC2C)nc2cc(-c3ccc(-c4cncnc4)cc3)nn12 (stereo not drawn) [Compound F3] | 832 | 185 | > 100000
CCc1cc(C(=O)N2CCCCCC2C)nc2cc(-c3ccc(-c4cccnc4)cc3F)nn12 (stereo not drawn) [Compound F4] | 724 | 167 to 168 | > 25100

Structure (SMILES) | EC50 (rgRSV224 virus) [nM] | melting point [°C] | CC50 at 3 days [1] [nM]
CCc1cc(C(=O)N2CCCCCC2C)nc2cc(-c3ccc(-c4ccn[nH]4)cc3F)nn12 (stereo not drawn) [Compound F5] | 309 | 75 to 76 | > 25100
CCc1cc(C(=O)N2CCCCCC2C)nc2cc(-c3ccc(-c4cncc(F)c4)cc3F)nn12 (stereo not drawn) [Compound F7] | 2090 | 95 to 96 | > 25100
CCc1cc(C(=O)N2CCCCCC2C)nc2cc(-c3ccc(-c4cccnc4F)cc3F)nn12 (stereo not drawn) [Compound F8] | 2340 | 86 to 87 | > 25100
CCc1cc(C(=O)N2CCCCCC2C)nc2cc(-c3ccc(-c4cnn(C)c4)cc3F)nn12 (stereo not drawn) [Compound F9] | 661 | 65 to 67 | > 25100
CCc1cc(C(=O)N2CCCCCC2C)nc2cc(-c3ccc(-c4cn(C)c(C)n4)cc3F)nn12 (stereo not drawn) [Compound F10] | 692 | 118 to 119 | > 25100
CCc1cc(C(=O)N2CCCCCC2C)nc2cc(-c3ccc(-c4ccc(C(=O)O)cn4)cc3F)nn12 (stereo not drawn) [Compound F14] | 182 | 245 to 250 | > 25100
CCc1cc(C(=O)N2CCCCC[C@H]2C)nc2cc(-c3ccc(-c4ccc(C(=O)O)cn4)cc3F)nn12 [Compound F15] | 120 | 181 to 182 | > 25100
CCc1cc(C(=O)N2CCCCCC2C)nc2cc(-c3ccc(-c4ncc(C)cn4)cc3F)nn12 (stereo not drawn) [Compound F17] | 646 | 140 to 145 | > 25100
CCc1cc(C(=O)N2CCCCCC2C)nc2cc(-c3ccc(-c4nc(C)c(C(=O)O)s4)cc3F)nn12 (stereo not drawn) [Compound F18] | 200 | 165 to 170 | > 25100
C[C@@H]1CCCCCN1C(=O)c1cc(C2(C)CC2)n2nc(-c3ccc(-c4ccc(C(=O)O)cn4)cc3F)cc2n1 [Compound F31] | 49 | 257.89 | 32400
CCc1cc(C(=O)N2CCCCCN2C)nc2cc(-c3ccc(-c4ccc(C(=O)O)cn4)cc3F)nn12 [Compound F35] | 162 | 268.78 | > 100000
CCc1cc(C(=O)N2CCCCC[C@H]2C)nc2cc(-c3ccc4ccc(C(=O)O)cc4c3F)nn12 [Compound F36] | 46.8 | 274.48 | > 100000
C[C@@H]1CCCCCN1C(=O)c1cc(C2CCC2)n2nc(-c3ccc4c(c3F)OCC(C(=O)O)=C4)cc2n1 [Compound F39] | 38.9 | 230.94 | 44700
CCc1cc(C(=O)N2CCCCC[C@H]2C)nc2cc(-c3ccc4c(C(=O)O)coc4c3F)nn12 [Compound F40] | 132 | 213.87 | 52500
CC(C)Cc1cc(C(=O)N2CCCCC[C@H]2C)nc2cc(-c3ccc(-c4ccc(C(=O)O)cn4)cc3F)nn12 [Compound F41] | 36.3 | 197.2 | 22400
CCc1cc(C(=O)N2CCCCCC2C)nc2cc(-c3ccc(B(O)O)cc3F)nn12 (stereo not drawn) [Compound G1] | 282 | 195 to 200 | > 25100
CNc1cc(C(=O)N2CCCCCC2C)nc2cc(-c3ccc(C#N)cc3F)nn12 (stereo not drawn) [Compound H1] | 562 | 219 to 220 | > 25100
CC1CCCCCN1C(=O)c1cc(N(C)C)n2nc(-c3ccc(C#N)cc3F)cc2n1 (stereo not drawn) [Compound H2] | 912 | 194 to 195 | > 25100
CCc1cc(C(=O)N2CCCCC[C@H]2C)nc2cc(-c3ccc(C#N)cc3F)nn12 [Compound H4] | 661 | 96 | > 25100
CCc1cc(C(=O)N2CCCCCC2C)nc2cc(-c3ccc(C#N)cc3F)nn12 (stereo not drawn) [Compound H5] | 813 | 95 | > 25100
CCc1cc(C(=O)N2CCCCC[C@H]2C)nc2cc(-c3ccc(C(N)=O)cc3F)nn12 [Compound I1] | 53.7 | 180 | > 25100
CCc1cc(C(=O)N2CCCCCC2C)nc2cc(-c3c(F)cc(C(N)=O)cc3F)nn12 (stereo not drawn) [Compound I27] | 251 | 160 to 165 | > 25100
CCc1cc(C(=O)N2CCCCCC2C)nc2cc(-c3ccc(C(N)=O)nc3)nn12 (stereo not drawn) [Compound I28] | 1780 | 174 to 175 | > 25100
CNc1cc(C(=O)N2CCCCCC2C)nc2cc(-c3ccc(C(N)=O)cc3F)nn12 (stereo not drawn) [Compound I29] | 295 | 179 to 181 | > 25100
